Several values for one entry are separate records, joined by “and”; a condition that tells them apart may be missing. Equal values may be shown once. Square brackets hold non-standard residues; d marks the D form. Peptide text beside a SMILES is read from it.
Columns and labels:
THP1 cells = experiment: Cell viability (CCK-8), cytotoxicity; settings: for Cell viability (Fig. S2e): THP1 (48h)
Description: (§1) Cell viability was measured by cell counting kit-8 (TargetMol) according to the manufacturer’s instructions.
(§2) Supplementary Fig. 2. […]
(§3) (e-g) THP1 cells (e), L929 cells (f) and RAW264.7 cells (g) were exposed to the indicated doses of XQ2 for 48h, the cell viability was measured by CCK8 assay. Data are representative of three independent experiments in (a-g). (Data are presented as mean ± SD, n = 3 independent samples in (a-g), **p < 0.01, ***p < 0.001, ****p < 0.0001 using one-way ANOVA with Dunnett’s post hoc test).
(§4) Source data are provided as a Source Data file. […]
(§5) Relative viability(%) XQ2B
(§6) Supplementary Fig. 7. […] (a) THP1 cells were exposed to the indicated doses of XQ2 or XQ2B for 48h. The cell viability was measured by CCK8 assay. […]
(§7) Data are representative of three independent experiments with similar results in (e), or three independent experiments in (a -d, f, g) . (Data are presented as mean ± SD, n = 3 independent samples in (a-d, f, g), ns, not significant, **p < 0.01, ***p < 0.001, ****p < 0.0001 using one-way ANOV A with Dunnett’s post hoc test). Source data are provided as a Source Data file.

[1] = Cell viability (CCK-8), cytotoxicity; settings: human, THP1 cells
Description: as §1, §2, §3, §4, §5, §6, §7

[2] = test system: HSV-1-infected THP1 cells; experiment: qPCR of IFNB1/CXCL10/IL6 mRNA in THP1 cells stimulated by HSV-1 infection; assay type: cell-based, human

Which “Cell viability (Fig. S2e)” value (THP1 cells; XQ2 0.16 μM) does the source give for `CC(C)C[C@@H]1NC(=O)[C@H](CCCNC(=N)N)NC(=O)[C@H](C(C)C)NC(=O)[C@@H]2CCCN2C(=O)[C@@H](Cc2ccccc2)NC(=O)[C@H](CC(C)C)NC(=O)[C@H](CCCNC(=N)N)NC(=O)[C@H](C(C)C)NC(=O)[C@H](C)NC(=O)[C@@H](Cc2ccccc2)NC1=O` [XQ2, Cyclo (LfAVRLfPVR)] (cyclo(L[dF]AVRL[dF]PVR)) here?
Its value is 87.186 and 98.2321.

And the “Cell viability (Fig. S2e)” value (THP1 cells; XQ2 0.31 μM)?
The value was 93.9161 and 92.7457.

What about the “Cell viability (Fig. S2e)” value (THP1 cells; XQ2 0.63 μM) of the same compound?
Its value is 102.329 and 90.4779.

And the “Cell viability (Fig. S2e)” value (THP1 cells; XQ2 1.25 μM)?
The value was 94.1356 and 101.451.

What about the “Cell viability (Fig. S2e)” value (THP1 cells; XQ2 2.5 μM) of the same compound?
The value was 93.4772 and 103.426.

And the “Cell viability (Fig. S2e)” value (THP1 cells; XQ2 5 μM)?
The value was 89.1612 and 96.4765.

And the “Cell viability (Fig. S2e)” value (THP1 cells; XQ2 10 μM)?
Its value is 102.841 and 97.9395.

And the IC50 (THP1 cells; read-out: IC50, cell viability (CCK8), Fig. S7a, THP1, 48h)?
Its IC50 is 24.3 ± 8.9 µM.

And the viability at 48 h, 0.16 µM ([1]; Cell viability (Fig. S2e), THP1 (48h), XQ2 0.16 μM)?
The viability at 48 h, 0.16 µM was 87.4%.

What about the viability at 48 h, 0.31 µM ([1]; Cell viability (Fig. S2e), THP1 (48h), XQ2 0.31 μM) of the same compound?
Its viability at 48 h, 0.31 µM is 103%.

What about the viability at 48 h, 0.63 µM ([1]; Cell viability (Fig. S2e), THP1 (48h), XQ2 0.63 μM) of the same compound?
Its viability at 48 h, 0.63 µM is 94.8%.

And the viability at 48 h, 1.25 µM ([1]; Cell viability (Fig. S2e), THP1 (48h), XQ2 1.25 μM)?
The viability at 48 h, 1.25 µM was 95.7%.

And the viability at 48 h, 2.5 µM ([1]; Cell viability (Fig. S2e), THP1 (48h), XQ2 2.5 μM)?
The viability at 48 h, 2.5 µM was 92.5%.

What about the viability at 48 h, 5 µM ([1]; Cell viability (Fig. S2e), THP1 (48h), XQ2 5 μM) of the same compound?
Its viability at 48 h, 5 µM is 90.4%.

And the viability at 48 h, 10 µM ([1]; Cell viability (Fig. S2e), THP1 (48h), XQ2 10 μM)?
The viability at 48 h, 10 µM was 93.6%.

And the viability at 48 h, 0.3125 µM ([1]; Cell viability (Fig. S7a), XQ2 312.5 nM)?
The viability at 48 h, 0.3125 µM was 103%.

And the viability at 48 h, 0.625 µM ([1]; Cell viability (Fig. S7a), XQ2 625 nM)?
The viability at 48 h, 0.625 µM was 94.8%.

And the viability at 48 h, 1.25 µM ([1]; Cell viability (Fig. S7a), XQ2 1250 nM)?
The viability at 48 h, 1.25 µM was 95.7%.

And the viability at 48 h, 2.5 µM ([1]; Cell viability (Fig. S7a), XQ2 2500 nM)?
Its viability at 48 h, 2.5 µM is 92.5%.

And the viability at 48 h, 5 µM ([1]; Cell viability (Fig. S7a), XQ2 5000 nM)?
Its viability at 48 h, 5 µM is 90.4%.

What about the viability at 48 h, 10 µM ([1]; Cell viability (Fig. S7a), XQ2 10000 nM) of the same compound?
The viability at 48 h, 10 µM was 93.6%.

What about the viability at 48 h, 20 µM ([1]; Cell viability (Fig. S7a), XQ2 20000 nM) of the same compound?
The viability at 48 h, 20 µM was 56.9%.

What about the viability at 48 h, 40 µM ([1]; Cell viability (Fig. S7a), XQ2 40000 nM) of the same compound?
Its viability at 48 h, 40 µM is 4.01%.

What about the viability at 48 h, 80 µM ([1]; Cell viability (Fig. S7a), XQ2 80000 nM) of the same compound?
Its viability at 48 h, 80 µM is 6.79%.

What about the viability at 48 h, 160 µM ([1]; Cell viability (Fig. S7a), XQ2 160000 nM) of the same compound?
Its viability at 48 h, 160 µM is 6.84%.

And the viability at 48 h, 320 µM ([1]; Cell viability (Fig. S7a), XQ2 320000 nM)?
The viability at 48 h, 320 µM was 6.36%.

What about the “CXCL10 mRNA (Fig. S2b)” value ([2]; HSV-1, XQ2 0.31 μM) of the same compound?
The value was 13697.8 and 18057.7 and 19972.6.

And the “IFNB1 mRNA (Fig. S2b)” value ([2]; HSV-1, XQ2 0.31 μM)?
The value was 103.029 and 97.656 and 104.314.

And the “IL6 mRNA (Fig. S2b)” value ([2]; HSV-1, XQ2 0.31 μM)?
The value was 94.9854 and 106.129 and 109.338.

What about the “CXCL10 mRNA (Fig. S2b)” value ([2]; HSV-1, XQ2 0.63 μM) of the same compound?
The value was 14561.5 and 17791.3 and 14971.8.

And the “IFNB1 mRNA (Fig. S2b)” value ([2]; HSV-1, XQ2 0.63 μM)?
The value was 91.2373 and 106.205 and 112.809.

What about the “IL6 mRNA (Fig. S2b)” value ([2]; HSV-1, XQ2 0.63 μM) of the same compound?
Its value is 98.3879 and 100.916 and 99.3832.

And the “CXCL10 mRNA (Fig. S2b)” value ([2]; HSV-1, XQ2 1.25 μM)?
The value was 13878.7 and 14634.4 and 14561.7.

And the “IFNB1 mRNA (Fig. S2b)” value ([2]; HSV-1, XQ2 1.25 μM)?
The value was 97.5861 and 86.027 and 97.3512.

What about the “IL6 mRNA (Fig. S2b)” value ([2]; HSV-1, XQ2 1.25 μM) of the same compound?
The value was 83.7674 and 88.7511 and 90.6215.

What about the “CXCL10 mRNA (Fig. S2b)” value ([2]; HSV-1, XQ2 2.5 μM) of the same compound?
The value was 11116.4 and 12643.3 and 12467.1.
